Results from patent publication US9522125B1, “Method of treating cancer” (Macau University of Science and Technology, priority 2015, dated 2016).

Experiments:
[1] = system: HCC78 cells; experiment: Apoptosis analysis (morphology; Annexin-V FITC/PI flow cytometry) in HCC78 cells; type: cell-based
Method: HCC78 cells were seeded on a 6-well plate, and were allowed to attach overnight. The cells were treated with a dilution series of mitoxantrone for 48 h, collected by trypsin and washed twice with ice-cold PBS, and then resuspended in 100 μl 1× binding buffer. 2 μL Annexin-V FITC and 4 μL PI (100 μg/ml) were added to the solution and mixed well. After incubation for 15 min in the dark at room temperature, 400 μL of 1× binding buffer was added to each tube, where apoptosis level was then quantitatively analyzed using a FACSAria III Flow Cytometer (BD Biosciences, San Jose, Calif., USA).

[2] = system: HCC78 cells; experiment: MTT cytotoxicity assay on HCC78 cells; type: cell-based; details: Homo sapiens, 72 h treatment
Method: HCC78 cell line was purchased from the American Type Culture Collection (ATCC) (Manassas, Va., USA). Cells were cultured in RPMI-1640 medium containing 10% fetal bovine serum (FBS), 100 units/mL penicillin, and 100 μg/mL streptomycin under a humidified atmosphere of 5% CO2 at 37° C. Mitoxantrone was dissolved in DMSO.
(§1) 1.3 MTT Cytotoxicity Assay
(§2) 3000 cells were seeded on 96-well plates, then the plates were cultured overnight for cell adhesion, and treated with DMSO or various concentrations of mitoxantrone for 72 h. 10 μL of MTT (5 mg/mL; Sigma) was added in each well, and incubation was continued for another 4 hours, then the dark blue crystals were dissolved in 100 μL resolved solution (10% SDS and 0.1 mM HCL). Finally, the absorbance was measured at 570 nm by a microplate reader (Tecan, Morrisville, N.C., USA). The cell viability was calculated relative to untreated controls, and results were presented based on at least 3 independent experiments.

[3] = system: CCD19-Lu cells; experiment: MTT cytotoxicity assay on normal lung cells CCD19-Lu; type: cell-based; details: 72 h treatment
Method: as §1, §2

[4] = system: ROS1 phosphorylation; experiment: Western blot analysis of ROS1 phosphorylation and downstream signaling in HCC78 cells; type: cell-based; details: 48 h, 5 nM, 10 nM and 20 nM
Method: 1.5 Western Blot Analysis
After cells were plated on 6-well plates overnight, a wide concentrations of mitoxantrone were administered for 48 h. Cells were washed twice with cold PBS and then lysed in RIPA lysis buffer containing protease and phosphatase inhibitors, and protein concentration of the cell lysates were measured using the Bio-Rad protein Assay kit (Bio-Rad, Philadelphia, Pa., USA). After equalizing the protein concentrations of the samples, 5× laemmli buffer was added and boiled at 100° C. for 5 min. Equal amounts of protein samples (30 μg) were subjected to SDS-PAGE and separated with a 10% gel; then the separated proteins were transferred to a Nitrocellulose (NC) membrane, which was then exposed to 5% non-fat dried milk in TBS containing 0.1% Tween 20 (0.1% TBST) for 1 h at room temperature, followed by overnight incubation at 4° C. with primary anti-bodies (1:1000 dilutions). After being washed 3 times by TBST, the membranes were incubated with secondary fluorescent antibodies (1:10000 dilutions) to rabbit or mouse, the signal intensity of the membranes was detected by an LI-COR Odessy scanner (Belfast, Me., USA). Antibodies against GAPDH, p-AKT, p-ROS1, ROS1, p-ERK, ERK, p-STAT3, STAT3 were purchased from Cell signaling Technology. Anti-AKT antibody was acquired from Santa Cruz Biotechnology.

[5] = biological target: ROS1 kinase (Homo sapiens, UniProt P08922); experiment: In vitro ROS1 enzymatic assay (LanthaScreen Eu kinase binding assay); details: room temperature, 1 hour
ROS1 kinase, sequence (P08922 28-2347): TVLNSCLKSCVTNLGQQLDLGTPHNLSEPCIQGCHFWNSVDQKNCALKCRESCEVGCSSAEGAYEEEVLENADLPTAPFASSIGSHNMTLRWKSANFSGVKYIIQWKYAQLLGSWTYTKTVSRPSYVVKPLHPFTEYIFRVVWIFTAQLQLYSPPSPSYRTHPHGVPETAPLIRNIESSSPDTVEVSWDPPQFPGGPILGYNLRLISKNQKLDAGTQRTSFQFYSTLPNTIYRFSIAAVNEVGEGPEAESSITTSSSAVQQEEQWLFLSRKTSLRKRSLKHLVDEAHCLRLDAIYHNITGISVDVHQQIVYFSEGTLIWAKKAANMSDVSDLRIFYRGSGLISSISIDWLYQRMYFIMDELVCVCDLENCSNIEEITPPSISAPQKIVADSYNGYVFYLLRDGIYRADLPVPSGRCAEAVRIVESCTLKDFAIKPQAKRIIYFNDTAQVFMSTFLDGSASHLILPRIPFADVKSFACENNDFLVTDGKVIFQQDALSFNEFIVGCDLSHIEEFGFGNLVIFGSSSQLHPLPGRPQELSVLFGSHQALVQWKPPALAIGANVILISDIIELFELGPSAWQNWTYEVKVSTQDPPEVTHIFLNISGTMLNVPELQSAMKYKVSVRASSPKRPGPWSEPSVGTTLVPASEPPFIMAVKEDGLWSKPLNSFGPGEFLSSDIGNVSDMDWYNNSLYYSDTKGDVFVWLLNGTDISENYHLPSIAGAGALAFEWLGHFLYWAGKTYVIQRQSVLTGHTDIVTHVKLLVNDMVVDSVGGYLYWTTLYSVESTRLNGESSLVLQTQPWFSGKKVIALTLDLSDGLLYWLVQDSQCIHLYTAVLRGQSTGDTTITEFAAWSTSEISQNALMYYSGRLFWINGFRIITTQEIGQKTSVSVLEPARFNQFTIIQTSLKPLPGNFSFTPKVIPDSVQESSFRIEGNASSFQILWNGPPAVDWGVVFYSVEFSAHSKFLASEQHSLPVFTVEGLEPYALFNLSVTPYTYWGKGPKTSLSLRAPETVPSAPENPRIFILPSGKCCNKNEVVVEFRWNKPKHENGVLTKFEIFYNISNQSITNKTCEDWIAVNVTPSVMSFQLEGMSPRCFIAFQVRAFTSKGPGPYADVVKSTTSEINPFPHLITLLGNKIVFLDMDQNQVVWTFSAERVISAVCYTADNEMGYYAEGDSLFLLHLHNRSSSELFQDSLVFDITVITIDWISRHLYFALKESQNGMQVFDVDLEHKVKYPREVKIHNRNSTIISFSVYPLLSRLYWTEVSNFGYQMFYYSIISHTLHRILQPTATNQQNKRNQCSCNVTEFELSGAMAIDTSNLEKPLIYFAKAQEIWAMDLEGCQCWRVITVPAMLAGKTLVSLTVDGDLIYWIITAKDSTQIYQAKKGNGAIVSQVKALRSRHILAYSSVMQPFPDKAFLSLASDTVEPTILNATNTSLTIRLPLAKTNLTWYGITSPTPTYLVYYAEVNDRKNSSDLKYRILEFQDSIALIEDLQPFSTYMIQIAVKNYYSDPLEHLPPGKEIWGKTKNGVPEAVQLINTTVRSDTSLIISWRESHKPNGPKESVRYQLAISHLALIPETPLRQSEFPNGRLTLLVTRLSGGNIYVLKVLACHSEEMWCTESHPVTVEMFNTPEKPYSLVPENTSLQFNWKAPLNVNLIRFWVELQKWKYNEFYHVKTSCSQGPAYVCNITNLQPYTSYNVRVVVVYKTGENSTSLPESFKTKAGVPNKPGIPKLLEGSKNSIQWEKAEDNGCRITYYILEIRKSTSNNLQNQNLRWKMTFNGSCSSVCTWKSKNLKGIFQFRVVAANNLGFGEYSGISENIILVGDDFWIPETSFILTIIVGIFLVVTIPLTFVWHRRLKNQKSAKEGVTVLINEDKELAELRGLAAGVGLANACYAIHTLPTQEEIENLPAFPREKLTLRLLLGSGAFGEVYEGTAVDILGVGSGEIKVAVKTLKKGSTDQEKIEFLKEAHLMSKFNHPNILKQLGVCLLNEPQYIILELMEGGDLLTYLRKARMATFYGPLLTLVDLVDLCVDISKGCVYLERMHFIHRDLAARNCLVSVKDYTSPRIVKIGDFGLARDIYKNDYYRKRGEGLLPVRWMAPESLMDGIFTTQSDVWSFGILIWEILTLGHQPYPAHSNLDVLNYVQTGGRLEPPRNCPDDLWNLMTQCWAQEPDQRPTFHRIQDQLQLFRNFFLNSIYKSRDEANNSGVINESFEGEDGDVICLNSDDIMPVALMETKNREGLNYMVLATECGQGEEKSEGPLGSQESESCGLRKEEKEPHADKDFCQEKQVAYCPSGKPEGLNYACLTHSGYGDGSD
Method: 1.2 In Vitro ROS1 Enzymatic Assay
LanthaScreen® Eu kinase binding assay was used to determine the changes in kinase activity, which is an assay based on the binding and displacement property of the kinase with substrate. Briefly, the assay was performed at room temperature for 1 hour in a total volume of 15 μL, including 5 μL of test compound, 5 μL of kinase/antibody mixture and 5 μL of tracer. The signal of the 384-well plate was then measured at the end of the reactions.

For O=C1c2c(O)ccc(O)c2C(=O)c2c(NCCNCCO)ccc(NCCNCCO)c21 [Mitoxantrone, mitoxantrone], the “induction of apoptosis (flow cytometry)” value ([1]; 48 h, 5 nM, 10 nM and 20 nM, compared with the control group) was “induced significant apoptosis levels”, the “concentration from which cells detached and became smaller (morphological indication of apoptosis)” value ([1]; FIG. 4) was no less than 10 nM and the IC50 [2] was 13.8 ± 2.49 nM. The “fold of IC50 in CCD19-Lu over IC50 on HCC78” value [3] was “at least 11.6 fold”, the IC50 ([3]; Homo sapiens, CCD 19Lu, CCD19-Lu normal lung cells) was greater than 160 nM and the “ROS1 phosphorylation and downstream signaling molecules Erk1/2, STAT3 and AKT (western blot)” value [4] was “dose-dependent decrease”. For the same molecule, the IC50 [5] was 36 nM.
